The supplement of paper PMC10307832

Legend:
Test in all cases: relative viability (nuclei count vs DMSO), 5 days (fraction); higher = more cells survive
[1] = compound: O=C1NC(=O)[C@@H](c2cn3c4c(cccc24)CCC3)[C@@H]1c1c[nH]c2ccccc12 [Tivantinib] + CS(=O)(=O)N1CCN(Cc2cc3nc(-c4cccc5[nH]ncc45)nc(N4CCOCC4)c3s2)CC1 [Pictilisib] (partner 1 µM)
Summary of the method: (§1)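 Each reported value is a median over duplicate plates. It expresses relative viability: treated-well nuclei count divided by vehicle-well nuclei count. Lung cancer cell lines in 1536-well plates were dosed by pin tool a day after seeding, alone with one drug or with a fixed anchor-drug dose plus five library-drug doses (not always all listed) in √10 steps, and nuclei were counted after 5 days.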

[2] = compound: CC1(COc2ccc3c(c2)ncn3-c2ccc3cccc(N4CCC(N)CC4)c3n2)COC1 [Crenolanib] + N=C(N)NC(=N)NCCc1ccccc1 [Phenformin] (partner 250 µM)
Summary of the method: as §1

[3] = compound: O=C1NC(=O)[C@@H](c2cn3c4c(cccc24)CCC3)[C@@H]1c1c[nH]c2ccccc12 [Tivantinib] + O=C(CCCCCCC(=O)Nc1ccccc1)NO [Vorinostat] (partner 1 µM)
Summary of the method: as §1

[4] = compound: O=C1NC(=O)[C@@H](c2cn3c4c(cccc24)CCC3)[C@@H]1c1c[nH]c2ccccc12 [Tivantinib] + CC(=O)Nc1cccc(-n2c(=O)n(C3CC3)c(=O)c3c(Nc4ccc(I)cc4F)n(C)c(=O)c(C)c32)c1 [Trametinib] (partner 0.02 µM)
Summary of the method: as §1

Cell Line	relative viability ([1]; first compound 0.01 µM)	relative viability ([1]; first compound 0.03162 µM)	relative viability ([1]; first compound 0.1 µM)	relative viability ([2]; first compound 0.01 µM)	relative viability ([2]; first compound 0.03162 µM)	relative viability ([2]; first compound 0.1 µM)	relative viability ([2]; first compound 0.3162 µM)	relative viability ([2]; first compound 1 µM)	relative viability ([3]; first compound 0.03162 µM)	relative viability ([3]; first compound 0.1 µM)	relative viability ([3]; first compound 0.3162 µM)	relative viability ([4]; first compound 0.03162 µM)	relative viability ([4]; first compound 0.1 µM)	relative viability ([4]; first compound 0.3162 µM)	relative viability ([1]; first compound 0.3162 µM)	relative viability ([3]; first compound 0.01 µM)	relative viability ([4]; first compound 0.01 µM)
H3255	0.466	0.494	0.485	0.432	0.326	0.386	0.321	0.35	0.843	0.753	0.295	0.5	0.642	0.234			
HARA	0.389	0.237	0.474	0.471	0.464	0.398	0.391	0.488	0.512	0.607	0.434	0.633	0.776	0.371	0.253	0.446	0.66
HCC-15	0.705	0.671	0.674	0.51	0.506	0.447	0.469	0.327	0.82	0.795	0.793	0.371	0.36	0.337	0.799	0.827	0.387
HCC-44	0.69	0.523	0.886	0.267	0.207	0.188	0.184	0.169	1.07	1.1	1.07	1.11	1.02	1.02	0.728	1.09	1.04
HCC-78	0.241	0.177	0.204	0.783	0.604		0.791	0.555	0.408	0.346	0.337	0.696	0.589	0.445	0.196	0.48	0.761
HCC-366	0.157	0.147	0.119	0.612	0.617	0.591	0.557	0.587	0.287	0.373	0.415	0.523	0.338	0.332	0.141	0.389	0.355
HCC-827	1.15	1.01	0.983	0.446	0.401	0.427	0.445	0.403	0.809	0.862		0.576	0.461		0.415	0.826	0.54
HOP-62	0.708		0.864	0.616	0.711	0.722	0.815	0.7	0.301	0.554	0.803	0.346	0.356	0.37	0.792	0.606	0.458
LC-2-ad	0.462	0.354	0.479	0.648	0.562	0.573	0.536	0.446	0.694	0.655	0.715	0.879	0.851	0.903	0.511	0.694	0.912
LCLC-97TM1	0.199	0.14	0.234	0.476	0.477	0.457	0.455	0.455	0.284	0.671	0.833	0.218	0.189	0.178	0.181	0.71	0.211
LCLC-103H	0.684	0.517	0.704	0.316	0.329	0.295	0.34	0.352	0.642	0.749	0.936	0.736	0.69	0.668	0.63	0.756	0.6
LK-2	0.685		0.567	0.472	0.446	0.411	0.314	0.317	0.34	0.217	0.311	0.454	0.683	0.518	0.496	0.219	0.723
LOU-NH91	0.517	0.485	0.521	0.862	0.657	0.711	0.667	0.692	0.811	0.916	0.749	0.762	0.81	0.691	0.519	0.838	0.724
LU99A	0.288	0.308	0.292	0.95	0.748	0.818	0.902	0.822	0.438	0.456	0.47	0.494	0.505	0.521	0.287	0.514	0.436
LXF-289	0.815	0.769	0.703	0.514	0.538	0.523	0.524	0.483	0.725	0.733	0.778	0.631	0.628	0.669	0.817	0.756	0.628
NCI-H23	0.43	0.324	0.533	0.887	0.855	0.753	0.841	0.669	0.527	0.624	0.671	0.352	0.37	0.347	0.382	0.679	0.509
NCI-H322M	0.505	0.481	0.467	0.794	0.802	0.755	0.835	0.803	0.833	0.861		0.471	0.449		0.4	0.903	0.486
NCI-H358	0.406	0.284	0.418	0.372	0.321	0.3	0.292	0.239	0.567	0.658	0.233	0.124	0.147	0.128	0.294	0.704	0.127
NCI-H441	0.499	0.451	0.601	0.771	0.881	0.955	0.936	0.633	0.762	0.563	0.708	0.405	0.448	0.352	0.242	0.844	0.476
NCI-H460	0.331	0.274	0.335	0.549	0.514	0.518	0.506	0.473	0.67	0.71	0.404	0.114	0.286	0.169	0.33	0.665	0.172

Cell Line	relative viability ([1]; first compound 0.01 µM)	relative viability ([1]; first compound 0.03162 µM)	relative viability ([1]; first compound 0.1 µM)	relative viability ([2]; first compound 0.01 µM)	relative viability ([2]; first compound 0.03162 µM)	relative viability ([2]; first compound 0.1 µM)	relative viability ([2]; first compound 0.3162 µM)	relative viability ([2]; first compound 1 µM)	relative viability ([3]; first compound 0.03162 µM)	relative viability ([3]; first compound 0.1 µM)	relative viability ([3]; first compound 0.3162 µM)	relative viability ([4]; first compound 0.03162 µM)	relative viability ([4]; first compound 0.1 µM)	relative viability ([4]; first compound 0.3162 µM)	relative viability ([1]; first compound 0.3162 µM)	relative viability ([3]; first compound 0.01 µM)	relative viability ([4]; first compound 0.01 µM)
NCI-H520	0.292	0.237	0.268	0.605	0.574	0.75	0.584	0.616	0.672	0.694	0.703	0.723	0.576	0.701	0.262	0.672	0.798
NCI-H596	0.427	0.39	0.379	0.691	0.806	0.72	0.733	0.737	0.589	0.636	0.531	0.839	0.774	0.678	0.334	0.687	0.897
NCI-H647	0.45	0.341	0.409	0.546	0.612	0.551	0.463	0.481	0.598	0.579	0.962	0.411	0.416	0.369	0.371	0.541	0.462
NCI-H650	0.835		0.817	0.468	0.405	0.48	0.445	0.445	0.356	0.443	0.4	0.787	0.899	0.945	0.8	0.45	0.936
NCI-H661	0.472	0.394	0.387	0.284	0.275	0.289	0.283	0.289	0.792	0.752	0.659	0.561	0.536	0.355	0.269	0.849	0.602
NCI-H727	0.36	0.368	0.447	0.636	0.544	0.497	0.565	0.599	1.22	1.35		0.343	0.398			1.11	0.413
NCI-H838	0.442	0.479	0.389	0.562	0.586	0.632	0.539	0.527	0.724	0.693	0.776	0.501	0.469	0.527	0.373	0.728	0.542
NCI-H1355	0.401	0.356	0.426	0.506	0.463	0.445	0.406	0.381	0.571	0.675	0.61	0.412	0.469	0.367	0.38	0.611	0.476
NCI-H1395	0.581	0.595	0.571	0.448	0.455	0.497	0.469	0.436	0.802	0.722	0.666	1.11	1.02	0.83	0.61	0.749	0.987
NCI-H1437	0.379	0.308	0.416	0.33	0.316	0.301	0.31	0.29	0.82	0.829	0.853	0.464	0.441	0.514	0.407	0.877	0.637
NCI-H1650	0.561	0.389	0.589	0.527	0.448	0.431	0.383	0.353	0.448	0.651	0.553	0.663	0.666	0.536	0.605	0.605	0.451
NCI-H1651	0.622	0.448	0.545	0.331	0.36	0.35	0.336	0.308	0.612	0.559	0.542	0.798	0.825	0.787	0.614	0.554	0.801
NCI-H1666	0.552	0.352	0.43	0.56	0.57	0.565	0.557	0.541	0.915	1	0.913	0.786	0.827	0.814	0.401	1.04	0.815
NCI-H1734	0.479	0.395	0.416	0.38	0.405	0.387	0.421	0.39	0.745	0.768	0.818	0.676	0.677	0.604	0.469	0.8	0.611
NCI-H1755	0.462	0.417	0.39	0.666	0.642	0.61	0.613	0.574	0.793	0.695	0.917	0.748	0.666	0.771	0.355	0.861	0.78
NCI-H1793	0.353	0.42	0.437	0.453	0.38	0.376	0.288	0.364	0.875	0.663	0.474	0.408	0.404	0.329		0.851	0.506
NCI-H1915	0.902	0.92	0.93	0.359	0.37	0.365	0.386	0.398	0.496	0.49	0.568	0.294	0.282	0.276	1.04	0.492	0.287
NCI-H1944	0.308	0.294	0.332	0.217	0.222	0.221	0.202	0.177	0.448	0.501	0.492	0.406	0.444	0.345	0.369	0.565	0.449
NCI-H1975	0.283	0.304	0.281	0.419	0.402	0.389	0.429	0.409	0.754	0.685	0.77	0.338	0.33	0.298	0.259	0.752	0.323
